# Results as given in patent publication EP0888056B1, “HERBICIDAL MIXTURES” (BASF AKTIENGESELLSCHAFT, priority 1996, dated 1998).
# Where “and” joins values, the source holds several entries; their conditions need not be identical. Equal values may be shown once.
# Assays:
# Assay type in all cases: in vivo
# Stellaria media = assay: greenhouse herbicidal trial, post-emergence application, assessment 21 days after treatment
# Experimental: (§1) The trials are carried out under greenhouse conditions in pre- and post-emergence applications. The plant seeds are sown in pots containing a loamy sand soil (0.5 I). The herbicides are applied as single treatments, or in a combination comprising a BAP compound and a non-BAP compound as designated, before or after emergence of weeds and crop. The herbicidal performance is assessed as percent damage in comparison to the untreated control plants. The assessment is done 21 days after the treatment. Wheat and barley are treated at the 3-4 leaf stage, the broad-leaf weeds at the 2-4 leaf stage and annual grasses at the 2-3 leaf stage.
# Galium aparine = assay: as above
# Experimental: as §1
# Veronica persica = assay: as above
# Experimental: as §1
# Lamium purpureum = assay: as above
# Experimental: as §1
# Papaver rhoeas = assay: as above
# Experimental: as §1
# Poa annua = assay: as above
# Experimental: as §1
# Lolium perenne = assay: as above
# Experimental: as §1
# Setaria viridis = assay: as above
# Experimental: as §1
# Alopecurus myosuroides [1] = assay: as above
# Experimental: as §1
# Myosotis arvensis = assay: as above
# Experimental: as §1
# Matricaria inodora = assay: as above
# Experimental: as §1
# Alopecurus myosuroides [2] = assay: greenhouse herbicidal trial, pre-emergence application, assessment 21 days after treatment
# Experimental: as §1
# Viola arvensis = assay: greenhouse herbicidal trial, post-emergence application, assessment 21 days after treatment
# Experimental: as §1
# Polygonum convolvulus = assay: as above
# Experimental: as §1
# Polygonum lapathifolium = assay: as above
# Experimental: as §1
# [3] = Galium aparine (1.whorl), 15 g a.i./ha
# [4] = Galium aparine (2.whorl), 15 g a.i./ha
# [5] = Galium aparine (1.whorl), 60 g a.i./ha
# [6] = Galium aparine (2.whorl), 60 g a.i./ha
# [7] = Galium aparine (1.whorl), 120 g a.i./ha
# [8] = Galium aparine (2.whorl), 120 g a.i./ha
# [9] = Galium aparine (1.whorl), 30 g a.i./ha
compound,measurement,setting,value
"COc1cc(OC)nc(NC(=O)NS(=O)(=O)N(C)S(C)(=O)=O)n1 [Amidosulfuron, reference compound]",% Control,Stellaria media; 30 g a.i./ha,50%
same,% Control,Galium aparine; [3],40%
same,% Control,Galium aparine; [4],20%
same,% Control,Veronica persica; 30 g a.i./ha,0%
same,% Control,Lamium purpureum; 30 g a.i./ha,0%
same,% Control,Papaver rhoeas; 30 g a.i./ha,15%
Cc1cc(OCc2ccc(F)cc2)nc(Oc2cc(C(F)(F)F)nn2C)c1 [Compound C],% control,Poa annua; 12.5 g a.i./ha,75%
same,% control,Lolium perenne; 12.5 g a.i./ha,38%
same,% control,Lolium perenne; 25 g a.i./ha,65%
same,% control,Lolium perenne; 50 g a.i./ha,78%
same,% Control,Setaria viridis; 12.5 g a.i./ha,30%
same,% control,Setaria viridis; 12.5 g a.i./ha,30%
same,% control,Setaria viridis; 25 g a.i./ha,55%
same,% control,Setaria viridis; 50 g a.i./ha,75%
same,% control,Alopecurus myosuroides [1]; 12.5 g a.i./ha,65%
same,% control,Alopecurus myosuroides [1]; 25 g a.i./ha,83%
same,% control,Alopecurus myosuroides [1]; 50 g a.i./ha,88%
"N#Cc1cc(I)c(O)c(I)c1 [loxynil, reference compound]",% Control,Myosotis arvensis; 60 g a.i./ha,37%
same,% Control,Galium aparine; [5],40%
same,% Control,Galium aparine; [6],5%
same,% Control,Matricaria inodora; 60 g a.i./ha,89%
same,% Control,Papaver rhoeas; 60 g a.i./ha,0%
"CC(Oc1ccc(Oc2nc3ccc(Cl)cc3o2)cc1)C(=O)O (centres unmarked) [Fenoxaprop, reference compound]",% Control,Setaria viridis; 15 g a.i./ha,62%
same,% Control,Setaria viridis; 30 g a.i./ha,72%
same,% Control,Setaria viridis; 60 g a.i./ha,77%
"CC(C)c1ccc(NC(=O)N(C)C)cc1 [Isoproturon, reference compound]",% Control,Alopecurus myosuroides [2]; 120 g a.i./ha,75%
same,% Control,Myosotis arvensis; 1920 g a.i./ha,25%
same,% control,Poa annua; 150 g a.i./ha,65%
same,% control,Poa annua; 300 g a.i./ha,83%
same,% Control,Viola arvensis; 1920 g a.i./ha,65%
same,% Control,"Galium aparine; Galium aparine (2.whorl), 1920 g a.i./ha",0%
same,% control,Lolium perenne; 150 g a.i./ha,10%
same,% control,Lolium perenne; 300 g a.i./ha,40%
same,% Control,Veronica persica; 1920 g a.i./ha,0%
same,% Control,Polygonum convolvulus; 1920 g a.i./ha,4%
same,% control,Setaria viridis; 150 g a.i./ha,58%
same,% control,Alopecurus myosuroides [1]; 150 g a.i./ha,30%
same,% control,Alopecurus myosuroides [1]; 300 g a.i./ha,73%
same,% Control,Lamium purpureum; 1920 g a.i./ha,3%
Cc1cc(OCc2ccccc2)nc(Oc2cc(C(F)(F)F)nn2C)c1 [Compound D],% Control,Alopecurus myosuroides [2]; 15 g a.i./ha,60% and 57%
"CCNc1nc(Cl)nc(NC(C)(C)C#N)n1 [Cyanazine, reference compound]",% Control,Stellaria media; 120 g a.i./ha,61%
same,% Control,Stellaria media; 240 g a.i./ha,72%
same,% Control,Galium aparine; [7],5%
same,% Control,"Galium aparine; Galium aparine (1.whorl), 240 g a.i./ha",10%
same,% Control,Galium aparine; [8],0%
same,% Control,"Galium aparine; Galium aparine (2.whorl), 240 g a.i./ha",10%
same,% Control,"Galium aparine; Galium aparine (3.whorl), 120 g a.i./ha",0%
same,% Control,"Galium aparine; Galium aparine (3.whorl), 240 g a.i./ha",5%
same,% Control,Matricaria inodora; 120 g a.i./ha,52%
same,% Control,Matricaria inodora; 240 g a.i./ha,85%
same,% Control,Polygonum convolvulus; 120 g a.i./ha,60%
same,% Control,Papaver rhoeas; 120 g a.i./ha,0%
same,% Control,Papaver rhoeas; 240 g a.i./ha,0%
"CCCCCCCC(=O)Oc1c(Br)cc(C#N)cc1Br [Bromoxynil, Bromoxynil Octanoate, reference compound]",% Control,Stellaria media; 60 g a.i./ha,0%
same,% Control,Galium aparine; [5],70%
same,% Control,Galium aparine; [7],75%
same,% Control,Galium aparine; [6],57%
same,% Control,Galium aparine; [8],77%
same,% Control,Lamium purpureum; 60 g a.i./ha,17%
same,% Control,Papaver rhoeas; 60 g a.i./ha,79%
Cn1nc(C(F)(F)F)cc1Oc1cccc(Oc2cc(C(F)(F)F)nn2C)n1 [Compound A],% Control,Myosotis arvensis; 15 g a.i./ha,72%
same,% Control,Myosotis arvensis; 30 g a.i./ha,57%
same,% Control,Viola arvensis; 30 g a.i./ha,75%
same,% Control,Stellaria media; 30 g a.i./ha,45% and 65%
same,% Control,Galium aparine; [9],80% and 57%
same,% Control,"Galium aparine; Galium aparine (1.whorl), 50 g a.i./ha",50%
same,% Control,Galium aparine; [5],67%
same,% Control,"Galium aparine; Galium aparine (2.whorl), 50 g a.i./ha",30%
same,% Control,Galium aparine; [6],42%
same,% Control,Veronica persica; 30 g a.i./ha,81%
same,% Control,Matricaria inodora; 15 g a.i./ha,1%
same,% Control,Matricaria inodora; 30 g a.i./ha,1%
same,% Control,Lamium purpureum; 30 g a.i./ha,65% and 62% and 35%
same,% Control,Papaver rhoeas; 15 g a.i./ha,79%
same,% Control,Papaver rhoeas; 60 g a.i./ha,10%
Cc1cc(Oc2cc(C(F)(F)F)nn2C)nc(Oc2cc(C(F)(F)F)nn2C)c1 [Compound B],% Control,Polygonum lapathifolium; 15 g a.i./ha,17%
same,% Control,Stellaria media; 7.5 g a.i./ha,25%
same,% Control,Stellaria media; 15 g a.i./ha,47% and 45% and 27%
same,% Control,Stellaria media; 30 g a.i./ha,62% and 42%
same,% Control,"Galium aparine; Galium aparine (1.whorl), 15 9 a.i./ha",80%
same,% Control,Galium aparine; [3],67% and 40%
same,% Control,Galium aparine; [9],83% and 52%
same,% Control,"Galium aparine; Galium aparine (2.whorl), 15 9 a.i./ha",60%
same,% Control,Galium aparine; [4],45% and 37%
same,% Control,"Galium aparine; Galium aparine (2.whorl), 30 g a.i./ha",67% and 65% and 45%
same,% Control,"Galium aparine; Galium aparine (3.whorl), 15 g a.i./ha",40%
same,% Control,"Galium aparine; Galium aparine (3.whorl), 30 g a.i./ha",40%
same,% Control,Veronica persica; 7.5 g a.i./ha,65%
same,% Control,Veronica persica; 15 g a.i./ha,77%
same,% Control,Matricaria inodora; 15 9 a.i./ha,7%
same,% Control,Matricaria inodora; 15 g a.i./ha,20%
same,% Control,Matricaria inodora; 30 g a.i./ha,22%
same,% Control,Polygonum convolvulus; 15 g a.i./ha,7%
same,% Control,Polygonum convolvulus; 30 g a.i./ha,15% and 7%
same,% Control,Lamium purpureum; 7.5 g a.i./ha,70%
same,% Control,Papaver rhoeas; 7.5 g a.i./ha,7%
"Nc1c(Cl)c(F)nc(OCC(=O)O)c1Cl [Fluroxypyr, reference compound]",% Control,Polygonum lapathifolium; 120 g a.i./ha,80%
same,% Control,Stellaria media; 120 g a.i./ha,67%
same,% Control,Veronica persica; 120 g a.i./ha,52%
same,% Control,Matricaria inodora; 90 g a.i./ha,45%
same,% Control,Polygonum convolvulus; 90 g a.i./ha,45%
same,% Control,Papaver rhoeas; 90 g a.i./ha,0%
CCC(CC)Nc1c([N+](=O)[O-])cc(C)c(C)c1[N+](=O)[O-] [Pendimethalin],% Control,Alopecurus myosuroides [2]; 450 g a.i./ha,35%
same,% Control,Alopecurus myosuroides [2]; 900 g a.i./ha,55%
"Cc1cc(Cl)ccc1O[C@H](C)C(=O)O [CMPP-P, (R)-2-(4-chloro-2-methylphenoxy) proprionic acid]",% Control,Polygonum convolvulus; 480 g a.i./ha,40%
same,% Control,Lamium purpureum; 480 g a.i./ha,67%
same,% Control,Papaver rhoeas; 480 g a.i./ha,47%
